Consider 9 compounds from patent publication US20250018049A1, “COMPOUNDS FOR DEGRADING CYCLIN-DEPENDENT KINASE 2 VIA UBIQUITIN PROTEOSOME PATHWAY” (NIKANG THERAPEUTICS, INC., priority 2020, published 2025).

Common to all, as to type: cell-based
In assay [1] the target is T1, CDK2 (Homo sapiens, UniProt P24941). Kind of assay: Phospho-Rb HTRF measurement in OVCAR3 cells (inhibition of CDK2). On the set-up: High-Throughput Measurement of Cellular Endogenous CDK2; endogenous in cells; host or cells: OVCAR3. The settings on record: pRB(S807/811) assay, 24 h compound treatment.
The target of assay [2] is T2, CDK1 (Homo sapiens, UniProt P06493).
T2 construct: endogenous in cells; host or cells: KYSE520
T2 sequence (P06493 whole entry): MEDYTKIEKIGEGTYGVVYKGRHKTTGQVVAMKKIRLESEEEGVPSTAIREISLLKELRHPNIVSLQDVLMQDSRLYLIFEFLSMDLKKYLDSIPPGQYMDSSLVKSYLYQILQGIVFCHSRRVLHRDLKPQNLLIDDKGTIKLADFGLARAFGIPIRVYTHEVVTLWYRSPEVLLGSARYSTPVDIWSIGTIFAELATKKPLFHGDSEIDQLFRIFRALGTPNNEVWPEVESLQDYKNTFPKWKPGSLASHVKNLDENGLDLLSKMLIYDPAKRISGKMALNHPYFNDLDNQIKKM
T2 sequence (P14635 whole entry partner): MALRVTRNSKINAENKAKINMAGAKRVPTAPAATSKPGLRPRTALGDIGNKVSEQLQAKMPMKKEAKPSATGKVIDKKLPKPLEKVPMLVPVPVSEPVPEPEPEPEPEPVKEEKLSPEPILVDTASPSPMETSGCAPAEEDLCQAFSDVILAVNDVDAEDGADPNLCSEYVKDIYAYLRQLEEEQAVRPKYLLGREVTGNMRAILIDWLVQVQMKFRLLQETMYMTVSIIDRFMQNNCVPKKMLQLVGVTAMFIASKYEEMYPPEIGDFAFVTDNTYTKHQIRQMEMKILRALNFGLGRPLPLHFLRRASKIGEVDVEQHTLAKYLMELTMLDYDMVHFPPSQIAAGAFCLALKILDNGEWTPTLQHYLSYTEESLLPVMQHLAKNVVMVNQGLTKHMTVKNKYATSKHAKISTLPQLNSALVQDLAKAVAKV
Briefly: Phospho-Rb HTRF measurement in KYSE520 cells (inhibition of CDK1). The settings on record: CDK2-dependent OVCAR3 vs CDK2-independent but CDK1-dependent KYSE520 cell line. How it is done:
Phosphorylation of RB protein at S780 and S807/811 were measured using HTRF phospho-RB cellular kits (Cat #64RBS780PEG and 64RBS807PEG) from Cisbio.
On Day 1, OVCAR3 or KYSE520 cells were seeded into 96-well tissue-culture treated plates at 20,000 cells/well in 200 μL and incubated overnight at 37° C. in CO2 atmosphere. On Day 2, the cells were treated with test compounds at concentrations from 0.3 to 10,000 nM using HP D300 digital dispenser. Twenty-four hours after compound treatment, cell culture media was removed by flicking the plate and tapping the plate against clean paper towel. Immediately 30 μL 1× lysis buffer was supplemented from the kit and the plate was incubated at room temperature on shaker for 30 min. After homogenization by pipetting up and down, 8 μL cell lysate from 96-well cell culture plate was transferred to 384-well small volume white detection plate. 2 μL premixed detection solution was added and the plate was covered with sealer. To prepare the detection solution, d2 conjugated-phospho-RB antibody and Eu-cryptate conjugated phosphor-RB antibody were diluted into detection buffer following manufacturer's instruction. Detection plates were incubated for 4 h at room temperature and read on ClarioStar (BMG Labtech) in TR-FRET mode (665 nM and 620 nM). The TR-FRET ratio (665 nM/620 nM) was plotted against the compound concentration and normalized to DMSO controls. Half maximal inhibition concentration (IC50) values are calculated with a four-parameter logistic fit using GraphPad Prism (version 8; La Jolla, CA).
Compound 5 was not tested in the KYSE520 cell line.

For assay [3], the target named is T1, CDK2. Kind of assay: NanoBRET CDK2 engagement assay. The settings on record: OVCAR3 cells with stable CDK2-Luciferase vector, 24 hours treatment. More on the design: expressed in transfected cells. The method in brief: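 OVCAR3 cells stably expressing CDK2-luciferase, in Opti-MEM with 1% FBS, treated 24 h at 37° C with compound from 3 μM in ½-log steps to 0.3 nM; NanoBRET tracer present for final 2 h. Donor/acceptor emission read; engagement normalized to DMSO as 100% signal, IC50 by curve fit.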
In general terms: BRET reads energy transfer from a luciferase to a nearby fluorophore.

For assay [4], the target named is T1, CDK2. Briefly: CDK2 HTRF assay (cellular endogenous CDK2 level). More on the design: High-Throughput Measurement of Cellular Endogenous CDK2; endogenous in cells; host or cells: OVCAR3. The settings on record: OVCAR-3; OVCAR3 cells, 24 hours, 0.3 to 10,000 nM; read-out: max degradation of CDK2. On the procedure:
Effects of compounds on cellular CDK2 level can be monitored by a high-throughput HTRF assay or traditional Western Blot assay.
To determine half maximal degradation concentration (DC50) values of compounds, cellular CDK2 level was measured in 96-well format using HTRF total CDK2 cellular kit (Cat #64CDK2TPEG) from Cisbio.
On Day 1, OVCAR3 cells were seeded into 96-well tissue-culture treated plates at 20,000 cells/well in 200 μL and incubated overnight at 37° C. in CO2 atmosphere. On Day 2 cells were treated with compounds at concentration ranging from 0.3 to 10,000 nM using HP D300 digital dispenser. 24 hours after compound treatment, cell culture media was removed by flicking the plate and tapping the plate against clean paper towel. Immediately 30 μL 1× lysis buffer was supplemented from the kit and the plate was incubated at room temperature on shaker for 30 min. After homogenization by pipetting up and down, 8 μL cell lysate from 96-well cell culture plate was transferred to 384-well small volume white detection plate. 2 μL premixed detection solution was added and the plate was covered with sealer. To prepare the detection solution, d2 conjugated-CDK2 antibody and Eu-cryptate conjugated CDK2 antibody were diluted into detection buffer following manufacturer's instruction. Detection plates were incubated overnight at room temperature and read on ClarioStar (BMG Labtech) in TR-FRET mode (665 nM and 620 nM). The TR-FRET ratio (665 nM/620 nM) was plotted against the compound concentration and normalized to DMSO controls. Half maximal degradation concentration (DC50) values were calculated with a four-parameter logistic fit using GraphPad Prism (version 8; La Jolla, CA). FIG. 1 provides a dose-response curve of Compound 1 in Compound Table I in cellular CDK2 HTRF assay. IC50 in FIG. 1 is the same as DC50. Compounds 1, 13, 16, 22, 23, 28, 34, 35, 36, 37, 38, 39, 42, 48, 50, 51, 53, 54, 55, 56, 57, 58, 59, 60, 61, 62, 63, 65, 66, 68, 69, 70 were tested and max degradation of CDK2 observed was from about 35% to about 90%.
For orientation: TR-FRET usually uses a lanthanide donor and a delayed reading to cut background.

By IC50 is commonly meant the concentration that gives 50% inhibition.

For `O=C1CCC(N2C(=O)c3cccc(NCCOCCOCCOCCNS(=O)(=O)N4CCC(Nc5ncc6ccc(=O)n(C7CCCC7)c6n5)CC4)c3C2=O)C(=O)N1` (centres unmarked) [Compound 21, 4-((8-cyclopentyl-7-oxo-7,8-dihydropyrido[2,3-d]pyrimidin-2-yl)amino)-N-(2-(2-(2-(2-((2-(2,6-dioxopiperidin-3-yl)-1,3-dioxoisoindolin-4-yl)amino)ethoxy)ethoxy)ethoxy)ethyl) piperidine-1-sulfonamide], the results for the IC50 in assay [1] and in assay [3] were 422 nM and 1170 nM, respectively. The “times more potent pRb inhibition in OVCAR3 than in KYSE520” value (shortened to “times more potent pRb inhibition”) in assay [2] is given as roughly 11 times.
Consider `O=C1CCC(N2Cc3cc(N4CC(N5CCC(Oc6cccc(S(=O)(=O)N7CCC(Nc8ncc9ccc(=O)n(C%10CCCC%10)c9n8)CC7)c6)CC5)C4)ccc3C2=O)C(=O)N1` (centres unmarked) [Compound 28, 3-(5-(3-(4-(3-((4-((8-cyclopentyl-7-oxo-7,8-dihydropyrido[2,3-d]pyrimidin-2-yl)amino)-piperidin-1-yl)sulfonyl)phenoxy)piperidin-1-yl)-azetidin-1-yl)-1-oxoisoindolin-2-yl)piperidine-2,6-dione], for which the IC50 in assay [1] turned out to be 52.9 nM; in assay [3] it was 176 nM. For the same compound, the Dmax in assay [4] is 35 to 90%. The “times more potent pRb inhibition” value in assay [2] is roughly 21 times.
As to `O=C1CCC(N2Cc3cc(N4CCC(CN5CCC(c6cccc(S(=O)(=O)N7CCC(Nc8ncc9ccc(=O)n(C%10CCCC%10)c9n8)CC7)c6)CC5)CC4)ccc3C2=O)C(=O)N1` (centres unmarked) [Compound 34, 3-(5-(4-((4-(3-((4-((8-cyclopentyl-7-oxo-7,8-dihydropyrido[2,3-d]pyrimidin-2-yl)amino)-piperidin-1-yl)sulfonyl)phenyl)piperidin-1-yl)-methyl)piperidin-1-yl)-1-oxoisoindolin-2-yl)-piperidine-2,6-dione], the IC50 in assay [1] was determined as 50.3 nM; in assay [3], 86 nM. In addition, in assay [4], the Dmax lay in the range of 35 to 90%. Besides, the “times more potent pRb inhibition” value in assay [2] is recorded as roughly 10.5 times.
`Cn1c(=O)n(C2CCC(=O)NC2=O)c2cccc(CNCCOc3cccc(S(=O)(=O)N4CCC(Nc5ncc6ccc(=O)n(C7CCCC7)c6n5)CC4)c3)c21` (centres unmarked) [Compound 41, 3-(4-(((2-(3-((4-((8-cyclopentyl-7-oxo-7,8-dihydropyrido[2,3-d]pyrimidin-2-yl)amino)-piperidin-1-yl)sulfonyl)phenoxy)ethyl)amino)-methyl)-3-methyl-2-oxo-2,3-dihydro-1H-benzo[d]imidazol-1-yl)piperidine-2,6-dione]: the results for the IC50 in assay [1] and in assay [3] were 267 nM and 214 nM, respectively. For the same compound, the “times more potent pRb inhibition” value in assay [2] is listed as roughly 20.5 times.
As to `O=C1CCC(N2Cc3cc(CN4CCC(Oc5cccc(S(=O)(=O)N6CCC(Nc7ncc8ccc(=O)n(C9CCCC9)c8n7)CC6)c5)CC4)ccc3C2=O)C(=O)N1` (centres unmarked) [Compound 66, 3-(5-((4-(3-((4-((8-cyclopentyl-7-oxo-7,8-dihydropyrido[2,3-d]pyrimidin-2-yl)amino)-piperidin-1-yl)sulfonyl)phenoxy)-piperidin-1-yl)-methyl)-1-oxoisoindolin-2-yl)piperidine-2,6-dione], the IC50 worked out at 107 nM in assay [1] and 46 nM in assay [3]. Also, the Dmax in assay [4] fell in the range of 35 to 90%.
Turning to `O=C1CCC(N2Cc3cc(CNCCOc4cccc(S(=O)(=O)N5CCC(Nc6ncc7ccc(=O)n(C8CCCC8)c7n6)CC5)c4)ccc3C2=O)C(=O)N1` (centres unmarked) [Compound 68, 3-(5-(((2-(3-((4-((8-cyclopentyl-7-oxo-7,8-dihydropyrido[2,3-d]pyrimidin-2-yl)amino)-piperidin-1-yl)sulfonyl)phenoxy)ethyl)amino)-methyl)-1-oxoisoindolin-2-yl)piperidine-2,6-dione], the IC50 in assay [1] came out at 29.4 nM; in assay [3], 197 nM. In addition, the Dmax in assay [4] fell in the range of 35 to 90%.
For the compound `O=C1CCC(N2Cc3cc(N4CC(N5CCN(c6cccc(S(=O)(=O)N7CCC(Nc8ncc9ccc(=O)n(C%10CCCC%10)c9n8)CC7)c6)CC5)C4)ccc3C2=O)C(=O)N1` (centres unmarked) [Compound 69, 3-(5-(3-(4-(3-((4-((8-cyclopentyl-7-oxo-7,8-dihydropyrido[2,3-d]pyrimidin-2-yl)amino)-piperidin-1-yl)sulfonyl)phenyl)piperazin-1-yl)azetidin-1-yl)-1-oxoisoindolin-2-yl)piperidine-2,6-dione], the IC50 in assay [1] stood at 31.8 nM; in assay [3] it was 149 nM. In addition, in assay [4], the Dmax fell in the range of 35 to 90%.
On to `O=C1CCC(N2Cc3cc(N4CCN(C5CN(c6cccc(S(=O)(=O)N7CCC(Nc8ncc9ccc(=O)n(C%10CCCC%10)c9n8)CC7)c6)C5)CC4)ccc3C2=O)C(=O)N1` (centres unmarked) [Compound 70, 3-(5-(4-(1-(3-((4-((8-cyclopentyl-7-oxo-7,8-dihydropyrido[2,3-d]pyrimidin-2-yl)amino)-piperidin-1-yl)sulfonyl)phenyl)-azetidin-3-yl)piperazin-1-yl)-1-oxoisoindolin-2-yl)piperidine-2,6-dione], for which the figures for the IC50 in assay [1] and in assay [3] were 25.8 nM and 40.2 nM, respectively. Moreover, the Dmax in assay [4] was in the range of 35 to 90%.
In the case of `O=C1CCC(N2C(=O)c3cccc(NCCOCCOCCOCCOCCNS(=O)(=O)N4CCC(Nc5ncc6ccc(=O)n(C7CCCC7)c6n5)CC4)c3C2=O)C(=O)N1` (centres unmarked) [compound 1, 4-((8-cyclopentyl-7-oxo-7,8-dihydro-pyrido[2,3-d]pyrimidin-2-yl)amino)-N-(14-((2-(2,6-dioxopiperidin-3-yl)-1,3-dioxoisoindolin-4-yl)amino)-3,6,9,12-tetraoxatetradecyl)piperidine-1-sulfonamide], the IC50 in assay [1] came to 440 nM; in assay [3], 403 nM. Besides, in assay [4], the Dmax lay in the range of 35 to 90%.
